Reference: patent US7795290B2 (Genentech, Inc., priority 2004, dated 2010)

Target: T1, AKT1 (Homo sapiens, UniProt P31749)
T1 construct: purchased Upstate 14-276
Assay: HTS ATP-utilizing enzyme assay, off-chip mobility-shift (Caliper HTS 250)
Assay type: biochemical
Conditions: kinase named = inhibitory activity/selectivity; test compound 10 μM; active = greater than three-sigma from mean
Text: The following procedures describe the reagent and plate preparation for a HTS of an ATP-utilizing enzyme, such as a protein kinase, run in an off-chip mobility-shift assay format. The following provides an HTS protocol for running a protein kinase HTS screen on a Caliper HTS 250 microfluidics system. The following parameters are dependent on the protein kinase used and can be determined by one skilled in the art as part of a typical assay development process. For example, the peptide substrate used can be identified from the current literature, by screening a peptide library of potential protein kinase substrates, or by other applicable means accepted in the field.
The following table provides typical screen assay parameters appropriate for a Caliper HTS 250 microfluidics system used to assay AKT1. Parameters used to assay other protein kinases can be determined by one skilled in the art.
Assays to determine the kinase inhibitory activity of chemical entities of the present disclosure were performed using a Caliper HTS 250 microfluidics device, Greiner U-bottom assay plates, a Multidrop for transfer of reagents, and Biomek FX (AMNCBM03) software. Initially, 2.4 μL of a 1 mM solution of a test compound in 100% DMSO was added to a well of the Greiner U-bottom plate. A single Greiner U-bottom plate having 24×16 wells could include multiple test compounds. […] Using the Biomek FX, 10 μL of 0.5 M EDTA was added by the span-8 to wells, indicated as 100% Control and 2.4 μL of 100% DMSO was added by the span-8 to wells, indicated as 0% Control. […] The total reaction volume in each well was 25 μL, and the concentration of the test compound was 10 μM. The assay plate was incubated for 2.5 hrs at 20° C. to 22° C. […] The inhibition of the ATP-utilizing enzyme, such as a particular protein kinase, was determined by measuring the ratio of the peptide substrate to phosphorylated product for each well of the assay plate using the Caliper HTS 250 system.
The use of three-sigma statistical limits represents a conservative method for declaring potential hits among targets. The three-sigma activity, as well as the mean population activity, can be different for each target enzyme.
Each chemical entity listed in Table 2 was tested for protein kinase inhibitory activity according to the biological assays and definitions of protein kinase inhibitory activity as described herein.

T1 sequence (P31749 whole entry): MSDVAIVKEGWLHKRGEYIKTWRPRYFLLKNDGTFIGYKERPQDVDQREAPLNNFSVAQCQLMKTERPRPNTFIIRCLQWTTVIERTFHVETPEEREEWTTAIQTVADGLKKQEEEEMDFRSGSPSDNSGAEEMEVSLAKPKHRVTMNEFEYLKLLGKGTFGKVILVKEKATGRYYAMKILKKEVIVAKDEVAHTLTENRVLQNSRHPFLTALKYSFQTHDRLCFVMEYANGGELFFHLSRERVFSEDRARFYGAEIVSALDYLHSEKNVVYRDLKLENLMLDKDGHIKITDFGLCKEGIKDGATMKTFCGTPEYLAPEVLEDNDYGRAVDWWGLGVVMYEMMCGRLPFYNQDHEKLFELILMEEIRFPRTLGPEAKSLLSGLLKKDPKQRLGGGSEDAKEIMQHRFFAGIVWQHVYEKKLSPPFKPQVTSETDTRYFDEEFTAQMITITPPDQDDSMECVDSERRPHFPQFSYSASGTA

| SMILES | Activity |
| --- | --- |
| O=C(c1cccs1)N(CCCN1CCC(O)CC1)c1nc(-c2cc3ccccc3o2)cs1 [N-(4-(benzofuran-2-yl)thiazol-2-yl)-N-(3-(4-hydroxypiperidin-1-yl)propyl)thiophene-2-carboxamide] | AKT1 |
| CCOC(=O)C1CCCN(CCCN(C(=O)c2cccs2)c2nc(-c3cc4ccccc4o3)cs2)C1 (stereo not drawn) [ethyl 1-(3-(N-(4-(benzofuran-2-yl)thiazol-2-yl)thiophene-2-carboxamido)propyl)piperidine-3-carboxylate] | AKT1 |
| O=C(N1CCOCC1)N1CCN(CCCN(C(=O)c2cccs2)c2nc(-c3cc4ccccc4o3)cs2)CC1 [N-(4-(benzofuran-2-yl)thiazol-2-yl)-N-(3-(4-(morpholine-4-carbonyl)piperazin-1-yl)propyl)thiophene-2-carboxamide] | AKT1 |
| O=C(c1cccs1)N(CCCCN1CCOCC1)c1nc(-c2cc3ccccc3o2)cs1 [N-(4-(benzofuran-2-yl)thiazol-2-yl)-N-(4-morpholinobutyl)thiophene-2-carboxamide] | AKT1 |
| CC(=O)N(C)C1CCN(CCCN(C(=O)c2cccs2)c2nc(-c3cc4ccccc4o3)cs2)C1 (stereo not drawn) [N-(4-(benzofuran-2-yl)thiazol-2-yl)-N-(3-(3-(N-methylacetamido)pyrrolidin-1-yl)propyl)thiophene-2-carboxamide] | AKT1 |
| COc1ccc(OC)c(-c2csc(N(CCCN3CCOCC3)C(=O)c3cccs3)n2)c1 [N-(4-(2,5-dimethoxyphenyl)thiazol-2-yl)-N-(3-morpholinopropyl)thiophene-2-carboxamide] | AKT1 |
| O=C(c1cccnc1)N(CCCN1CCOCC1)c1nc(-c2cc3ccccc3o2)cs1 [N-(4-(benzofuran-2-yl)thiazol-2-yl)-N-(3-morpholinopropyl)nicotinamide] | AKT1 |
| CCN(CC)CCCN(C(=O)c1cccs1)c1nc(-c2cc3ccccc3o2)cs1 [N-(4-(benzofuran-2-yl)thiazol-2-yl)-N-(3-(diethylamino)propyl)thiophene-2-carboxamide] | AKT1 |
| O=C(c1cccs1)N(CCCn1ccnc1)c1nc(-c2cc3ccccc3o2)cs1 [N-(3-(1H-imidazol-1-yl)propyl)-N-(4-(benzofuran-2-yl)thiazol-2-yl)thiophene-2-carboxamide] | AKT1 |
| O=C(Nc1ccc2ncsc2c1)c1csc(N(CCCN2CCOCC2)C(=O)c2cccs2)n1 [N-(benzo[d]thiazol-6-yl)-2-(N-(3-morpholinopropyl)thiophene-2-carboxamido)thiazole-4-carboxamide] | AKT1 |
| CCOC(=O)c1csc(N(CCCN2CCOCC2)C(=O)c2cccs2)n1 [ethyl 2-(N-(3-morpholinopropyl)thiophene-2-carboxamido)thiazole-4-carboxylate] | AKT1 |
| O=C1CN(CCCN(C(=O)c2cccs2)c2nc(-c3cc4ccccc4o3)cs2)CCN1 [N-(4-(benzofuran-2-yl)thiazol-2-yl)-N-(3-(3-oxopiperazin-1-yl)propyl)thiophene-2-carboxamide] | AKT1 |
| O=C(CCCN(C(=O)c1cccs1)c1nc(-c2cc3ccccc3o2)cs1)NCCc1ccncc1 [N-(4-(benzofuran-2-yl)thiazol-2-yl)-N-(4-oxo-4-(2-(pyridin-4-yl)ethylamino)butyl)thiophene-2-carboxamide] | AKT1 |
| CC(CO)NC(=O)CCN(C(=O)c1cccs1)c1nc(-c2cc3ccccc3o2)cs1 (stereo not drawn) [N-(4-(benzofuran-2-yl)thiazol-2-yl)-N-(3-(1-hydroxypropan-2-ylamino)-3-oxopropyl)thiophene-2-carboxamide] | AKT1 |
| O=C(CCN(C(=O)c1cccs1)c1nc(-c2cc3ccccc3o2)cs1)N1CCNCC1 [N-(4-(benzofuran-2-yl)thiazol-2-yl)-N-(3-oxo-3-(piperazin-1-yl)propyl)thiophene-2-carboxamide] | AKT1 |
| O=C(c1ccc(-c2csc(N(CCCN3CCOCC3)C(=O)c3cccs3)n2)cc1)N1CCOCC1 [N-(4-(4-(morpholine-4-carbonyl)phenyl)thiazol-2-yl)-N-(3-morpholinopropyl)thiophene-2-carboxamide] | AKT1 |
| COc1ccc(OC)c(-c2csc(N(CCCN3CCCCCC3)C(=O)c3cccs3)n2)c1 [N-(3-(azepan-1-yl)propyl)-N-(4-(2,5-dimethoxyphenyl)thiazol-2-yl)thiophene-2-carboxamide] | AKT1 |

| SMILES | Activity |
| --- | --- |
| O=C(NCCO)C1CCN(C(=O)CCCN(C(=O)c2cccs2)c2nc(-c3cc4ccccc4o3)cs2)CC1 [1-(4-(N-(4-(benzofuran-2-yl)thiazol-2-yl)thiophene-2-carboxamido)butanoyl)-N-(2-hydroxyethyl)piperidine-4-carboxamide] | AKT1 |
| COC(=O)C1CCCCN1CCCN(C(=O)c1cccs1)c1nc(-c2cc3ccccc3o2)cs1 (stereo not drawn) [methyl 1-(3-(N-(4-(benzofuran-2-yl)thiazol-2-yl)thiophene-2-carboxamido)propyl)piperidine-2-carboxylate] | AKT1 |
| O=C(c1cccs1)N(CCCN1CCCCC1CO)c1nc(-c2cc3ccccc3o2)cs1 (stereo not drawn) [N-(4-(benzofuran-2-yl)thiazol-2-yl)-N-(3-(2-(hydroxymethyl)piperidin-1-yl)propyl)thiophene-2-carboxamide] | AKT1 |
| CN1CCN(CCCN(C(=O)c2cccs2)c2nc(-c3cc4ccccc4o3)cs2)CC1 [N-(4-(benzofuran-2-yl)thiazol-2-yl)-N-(3-(4-methylpiperazin-1-yl)propyl)thiophene-2-carboxamide] | AKT1 |
| O=C(c1cccs1)N(CCCN1CCCCCC1)c1nc(-c2ccccc2)cs1 [N-(3-(azepan-1-yl)propyl)-N-(4-phenylthiazol-2-yl)thiophene-2-carboxamide] | AKT1 |
| CCOC(=O)CC1CCCN(C(=O)CCCN(C(=O)c2cccs2)c2nc(-c3cc4ccccc4o3)cs2)C1 (stereo not drawn) [ethyl 2-(1-(4-(N-(4-(benzofuran-2-yl)thiazol-2-yl)thiophene-2-carboxamido)butanoyl)piperidin-3-yl)acetate] | AKT1 |
| CCN(CC)C1CCN(C(=O)CCCN(C(=O)c2cccs2)c2nc(-c3cc4ccccc4o3)cs2)CC1 [N-(4-(benzofuran-2-yl)thiazol-2-yl)-N-(4-(4-(diethylamino)piperidin-1-yl)-4-oxobutyl)thiophene-2-carboxamide] | AKT1 |
| COc1ccc(-c2csc(N(Cc3ccco3)C(=O)c3cccs3)n2)cc1 [N-(furan-2-ylmethyl)-N-(4-(4-methoxyphenyl)thiazol-2-yl)thiophene-2-carboxamide] | AKT1 |
| CCN(CC)C1CCN(CCCN(C(=O)c2cccs2)c2nc(-c3cc4ccccc4o3)cs2)C1 (stereo not drawn) [N-(4-(benzofuran-2-yl)thiazol-2-yl)-N-(3-(3-(diethylamino)pyrrolidin-1-yl)propyl)thiophene-2-carboxamide] | AKT1 |
| CC(CO)(CO)C(=O)NCCCN(C(=O)c1cccs1)c1nc(-c2cc3ccccc3o2)cs1 [N-(4-(benzofuran-2-yl)thiazol-2-yl)-N-(3-(3-hydroxy-2-(hydroxymethyl)-2-methylpropanamido)propyl)thiophene-2-carboxamide] | AKT1 |
| O=C(c1cccs1)N(CCCC(=O)N(CCCCO)C1CCCCC1)c1nc(-c2cc3ccccc3o2)cs1 [N-(4-(benzofuran-2-yl)thiazol-2-yl)-N-(4-(cyclohexyl(4-hydroxybutyl)amino)-4-oxobutyl)thiophene-2-carboxamide] | AKT1 |
| CN(C)CCN1CCN(CCCN(C(=O)c2cccs2)c2nc(-c3cc4ccccc4o3)cs2)CC1 [N-(4-(benzofuran-2-yl)thiazol-2-yl)-N-(3-(4-(2-(dimethylamino)ethyl)piperazin-1-yl)propyl)thiophene-2-carboxamide] | AKT1 |
| O=C(O)CCOc1cccc(-c2csc(N(CCCN3CCOCC3)C(=O)c3cccs3)n2)c1 [3-(3-(2-(N-(3-morpholinopropyl)thiophene-2-carboxamido)thiazol-4-yl)phenoxy)propanoic acid] | AKT1 |
| Cc1ccc(C(=O)N(CCCN2CCOCC2)c2nc(-c3ccccc3)cs2)cc1 [4-methyl-N-(3-morpholinopropyl)-N-(4-phenylthiazol-2-yl)benzamide] | AKT1 |
| COc1ccc(OC)c(-c2csc(N(CCCN3CCCCC3)C(=O)c3cccs3)n2)c1 [N-(4-(2,5-dimethoxyphenyl)thiazol-2-yl)-N-(3-(piperidin-1-yl)propyl)thiophene-2-carboxamide] | AKT1 |
| O=C(CCN(C(=O)c1cccs1)c1nc(-c2cc3ccccc3o2)cs1)N1CCC(O)C1 (stereo not drawn) [N-(4-(benzofuran-2-yl)thiazol-2-yl)-N-(3-(3-hydroxypyrrolidin-1-yl)-3-oxopropyl)thiophene-2-carboxamide] | AKT1 |
